Reference: the supplement of paper PMC10307832

Key:
Assay in all cases: relative viability (nuclei count vs DMSO), 5 days (fraction); higher = more cells survive
LU99A = tested on: LU99A
Method in brief: (§1)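 Relative viability equals treated-well nuclei counts divided by vehicle-well nuclei counts. Counts came from 4× images of lung cancer cell lines grown in 1536-well plates for 5 days after pin-tool dosing on the day after seeding. Dosing used one drug alone or a fixed anchor-drug dose plus five library-drug doses (not always all listed) in √10 steps, and values are medians of duplicate plates.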

NCI-H1650 = tested on: NCI-H1650
Method in brief: as §1

NCI-H2085 = tested on: NCI-H2085
Method in brief: as §1

NCI-H596 = tested on: NCI-H596
Method in brief: as §1

SK-LU-1 = tested on: SK-LU-1
Method in brief: as §1

PC-3 [JPC-3] = tested on: PC-3 [JPC-3]
Method in brief: as §1

NCI-H1793 = tested on: NCI-H1793
Method in brief: as §1

NCI-H2087 = tested on: NCI-H2087
Method in brief: as §1

NCI-H358 = tested on: NCI-H358
Method in brief: as §1

NCI-H1651 = tested on: NCI-H1651
Method in brief: as §1

HCC-366 = tested on: HCC-366
Method in brief: as §1

NCI-H650 = tested on: NCI-H650
Method in brief: as §1

NCI-H23 = tested on: NCI-H23
Method in brief: as §1

COR-L23 = tested on: COR-L23
Method in brief: as §1

HARA = tested on: HARA
Method in brief: as §1

H3255 = tested on: H3255
Method in brief: as §1

NCI-H460 = tested on: NCI-H460
Method in brief: as §1

201T = tested on: 201T
Method in brief: as §1

HCC-78 = tested on: HCC-78
Method in brief: as §1

NCI-H1755 = tested on: NCI-H1755
Method in brief: as §1

NCI-H3122 = tested on: NCI-H3122
Method in brief: as §1

NCI-H322M = tested on: NCI-H322M
Method in brief: as §1

Work on `CCNC(=O)c1noc(-c2cc(C(C)C)c(O)cc2O)c1-c1ccc(CN2CCOCC2)cc1` [Luminespib] + CS(=O)(=O)N1CCN(Cc2cc3nc(-c4cccc5[nH]ncc45)nc(N4CCOCC4)c3s2)CC1 [Pictilisib] (partner 1 µM) yielded a relative viability (LU99A; first compound 0.002 µM) of 0.351, a relative viability (LU99A; first compound 0.006325 µM) of 0.36 and a relative viability (LU99A; first compound 0.02 µM) of 0.226. For the same molecule, the relative viability (LU99A; first compound 0.06325 µM) was 0.153, the relative viability (LU99A; first compound 0.2 µM) was 0.112 and the relative viability (NCI-H1650; first compound 0.002 µM) was 0.593. For the same molecule, the relative viability (NCI-H1650; first compound 0.006325 µM) was 0.653, the relative viability (NCI-H1650; first compound 0.02 µM) was 0.199 and the relative viability (NCI-H1650; first compound 0.06325 µM) was 0.129. For the same molecule, the relative viability (NCI-H1650; first compound 0.2 µM) was 0.106, the relative viability (NCI-H2085; first compound 0.002 µM) was 0.448 and the relative viability (NCI-H2085; first compound 0.006325 µM) was 0.511. It also gave a relative viability (NCI-H2085; first compound 0.02 µM) of 0.354, a relative viability (NCI-H2085; first compound 0.06325 µM) of 0.51 and a relative viability (NCI-H2085; first compound 0.2 µM) of 0.28. It also gave a relative viability (NCI-H596; first compound 0.002 µM) of 0.343, a relative viability (NCI-H596; first compound 0.006325 µM) of 0.404 and a relative viability (NCI-H596; first compound 0.06325 µM) of 0.275. For the same molecule, the relative viability (NCI-H596; first compound 0.2 µM) was 0.267, the relative viability (SK-LU-1; first compound 0.002 µM) was 0.582 and the relative viability (SK-LU-1; first compound 0.006325 µM) was 0.403. The relative viability (SK-LU-1; first compound 0.02 µM) was 0.243, the relative viability (SK-LU-1; first compound 0.06325 µM) was 0.161 and the relative viability (SK-LU-1; first compound 0.2 µM) was 0.121. For the same molecule, the relative viability (PC-3 [JPC-3]; first compound 0.002 µM) was 0.756, the relative viability (PC-3 [JPC-3]; first compound 0.006325 µM) was 0.726 and the relative viability (PC-3 [JPC-3]; first compound 0.02 µM) was 0.626. The relative viability (PC-3 [JPC-3]; first compound 0.06325 µM) was 0.578, the relative viability (PC-3 [JPC-3]; first compound 0.2 µM) was 0.286 and the relative viability (NCI-H1793; first compound 0.002 µM) was 0.313. The relative viability (NCI-H1793; first compound 0.006325 µM) was 0.342, the relative viability (NCI-H1793; first compound 0.02 µM) was 0.12 and the relative viability (NCI-H1793; first compound 0.06325 µM) was 0.168. It also gave a relative viability (NCI-H1793; first compound 0.2 µM) of 0.194, a relative viability (NCI-H2087; first compound 0.002 µM) of 0.908 and a relative viability (NCI-H2087; first compound 0.006325 µM) of 0.776. It also gave a relative viability (NCI-H2087; first compound 0.02 µM) of 0.663, a relative viability (NCI-H2087; first compound 0.06325 µM) of 0.2 and a relative viability (NCI-H2087; first compound 0.2 µM) of 0.157. It also gave a relative viability (NCI-H358; first compound 0.002 µM) of 0.342, a relative viability (NCI-H358; first compound 0.006325 µM) of 0.311 and a relative viability (NCI-H358; first compound 0.02 µM) of 0.222. The relative viability (NCI-H358; first compound 0.06325 µM) was 0.133, the relative viability (NCI-H358; first compound 0.2 µM) was 0.124 and the relative viability (NCI-H1651; first compound 0.002 µM) was 0.592. It also gave a relative viability (NCI-H1651; first compound 0.006325 µM) of 0.608, a relative viability (NCI-H1651; first compound 0.02 µM) of 0.403 and a relative viability (NCI-H1651; first compound 0.06325 µM) of 0.136. The relative viability (NCI-H1651; first compound 0.2 µM) was 0.162, the relative viability (HCC-366; first compound 0.002 µM) was 0.159 and the relative viability (HCC-366; first compound 0.006325 µM) was 0.156. The relative viability (HCC-366; first compound 0.02 µM) was 0.116, the relative viability (HCC-366; first compound 0.06325 µM) was 0.0429 and the relative viability (HCC-366; first compound 0.2 µM) was 0.0407. It also gave a relative viability (NCI-H650; first compound 0.002 µM) of 1.09, a relative viability (NCI-H650; first compound 0.006325 µM) of 0.851 and a relative viability (NCI-H650; first compound 0.02 µM) of 0.477. The relative viability (NCI-H650; first compound 0.06325 µM) was 0.209, the relative viability (NCI-H650; first compound 0.2 µM) was 0.127 and the relative viability (NCI-H23; first compound 0.002 µM) was 0.475. For the same molecule, the relative viability (NCI-H23; first compound 0.006325 µM) was 0.486, the relative viability (NCI-H23; first compound 0.02 µM) was 0.374 and the relative viability (NCI-H23; first compound 0.06325 µM) was 0.134. The relative viability (NCI-H23; first compound 0.2 µM) was 0.157, the relative viability (COR-L23; first compound 0.002 µM) was 0.856 and the relative viability (COR-L23; first compound 0.006325 µM) was 0.633. For the same molecule, the relative viability (COR-L23; first compound 0.02 µM) was 0.368, the relative viability (COR-L23; first compound 0.06325 µM) was 0.0587 and the relative viability (COR-L23; first compound 0.2 µM) was 0.0601. For the same molecule, the relative viability (HARA; first compound 0.002 µM) was 0.295, the relative viability (HARA; first compound 0.006325 µM) was 0.396 and the relative viability (HARA; first compound 0.02 µM) was 0.174. It also gave a relative viability (HARA; first compound 0.06325 µM) of 0.531, a relative viability (HARA; first compound 0.2 µM) of 0.0744 and a relative viability (H3255; first compound 0.002 µM) of 0.497. It also gave a relative viability (H3255; first compound 0.006325 µM) of 0.474, a relative viability (H3255; first compound 0.02 µM) of 0.31 and a relative viability (H3255; first compound 0.06325 µM) of 0.327. The relative viability (H3255; first compound 0.2 µM) was 0.179, the relative viability (NCI-H460; first compound 0.002 µM) was 0.35 and the relative viability (NCI-H460; first compound 0.006325 µM) was 0.243. The relative viability (NCI-H460; first compound 0.02 µM) was 0.372, the relative viability (NCI-H460; first compound 0.06325 µM) was 0.116 and the relative viability (NCI-H460; first compound 0.2 µM) was 0.0892. For the same molecule, the relative viability (201T; first compound 0.002 µM) was 0.647, the relative viability (201T; first compound 0.006325 µM) was 0.693 and the relative viability (201T; first compound 0.02 µM) was 0.649. The relative viability (201T; first compound 0.06325 µM) was 0.721, the relative viability (201T; first compound 0.2 µM) was 0.58 and the relative viability (HCC-78; first compound 0.002 µM) was 0.204. It also gave a relative viability (HCC-78; first compound 0.06325 µM) of 0.267, a relative viability (HCC-78; first compound 0.2 µM) of 0.279 and a relative viability (NCI-H1755; first compound 0.002 µM) of 0.399. It also gave a relative viability (NCI-H1755; first compound 0.006325 µM) of 0.372, a relative viability (NCI-H1755; first compound 0.02 µM) of 0.351 and a relative viability (NCI-H1755; first compound 0.06325 µM) of 0.136. It also gave a relative viability (NCI-H1755; first compound 0.2 µM) of 0.105, a relative viability (NCI-H3122; first compound 0.002 µM) of 0.621 and a relative viability (NCI-H3122; first compound 0.006325 µM) of 0.621. It also gave a relative viability (NCI-H3122; first compound 0.02 µM) of 0.368, a relative viability (NCI-H3122; first compound 0.06325 µM) of 0.166 and a relative viability (NCI-H3122; first compound 0.2 µM) of 0.176. For the same molecule, the relative viability (NCI-H322M; first compound 0.002 µM) was 0.497, the relative viability (NCI-H322M; first compound 0.006325 µM) was 0.525 and the relative viability (NCI-H322M; first compound 0.02 µM) was 0.447. For the same molecule, the relative viability (NCI-H322M; first compound 0.06325 µM) was 0.485 and the relative viability (NCI-H322M; first compound 0.2 µM) was 0.3.
